Assay results from patent publication US12180187B2, “1-phenyl-5-azinylpyrazolyl-3-oxyalkyl acids and their use for controlling unwanted plant growth” (BAYER AKTIENGESELLSCHAFT, priority 2019, dated 2024).

Legend:
[1] = test system: KCHSC; assay: Pre-emergence action against KCHSC, 1280 g/ha; type: in vivo, Bassia scoparia; details: scored visually after about 3 weeks vs untreated controls (100% = plants have died)
In short: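 Mono- and dicot weed seeds sown in sandy loam were treated on the covering soil surface with WP or EC formulations plus 0.5% additive at 600 L water/ha. Pots stayed in a greenhouse; damage was scored visually after ~3 weeks as percent versus untreated controls (100% = dead).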

[2] = test system: HORMU; assay: Pre-emergence action at 320 g/ha against HORMU; type: in vivo, Hordeum murinum; details: greenhouse, scored visually after about 3 weeks vs untreated controls, 100% = plants have died, 0% = like control plants
Source text: b) Seeds of monocotyledonous and dicotyledonous weed plants and crop plants are placed in plastic or organic planting pots and covered with soil. The compounds of the invention, formulated in the form of wettable powders (WP) or as emulsion concentrates (EC), are then applied onto the surface of the covering soil as aqueous suspension or emulsion with addition of 0.5% additive at a water application rate of 600 l/ha (converted). After the treatment, the pots are placed in a greenhouse and kept under good growth conditions for the trial plants. After about 3 weeks, the effect of the preparations is scored visually in comparison with untreated controls as percentages. For example, 100% activity=the plants have died, 0% activity=like control plants. Tables 13 to 26 below show the effects of selected compounds of the general formula (I) on various harmful plants and at an application rate corresponding to 320 g/ha, which were obtained by the experimental procedure mentioned above.

[3] = test system: ABUTH; assay: Pre-emergence action at 320 g/ha against ABUTH; type: in vivo, Abutilon theophrasti; details: greenhouse, scored visually after about 3 weeks vs untreated controls, 100% = plants have died, 0% = like control plants
In short: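 Compounds were sprayed onto soil over sown seeds as emulsions or suspensions with 0.5% additive at a water rate of 600 l/ha. After about 3 weeks in the greenhouse, effect was rated visually as percent (100% = died).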

## CN(C)S(=O)(=O)NC(=O)COc1nn(-c2ccccc2F)c(-c2ccc(F)nc2)c1Br [Example X-005]
[1]
  Pre-emergence action against KCHSC: 90%

## COC(=O)COc1nn(-c2ccccc2F)c(-c2cncnc2)c1Br [VI-004, Methyl {[4-bromo-1-(2-fluorophenyl)-5-(pyrimidin-5-yl)-1H-pyrazol-3-yl]oxy}acetate]
[2]
  Pre-emergence action at 320 g/ha against HORMU in %: 100%
[3]
  Pre-emergence action at 320 g/ha against ABUTH in %: 80%

## O=C(O)COc1nn(-c2ccccc2F)c(-c2cncnc2)c1Br [VI-007, {[4-Bromo-1-(2-fluorophenyl)-5-(pyrimidin-5-yl)-1H-pyrazol-3-yl]oxy}acetic Acid]
[2]
  Pre-emergence action at 320 g/ha against HORMU in %: 100%

## COC(=O)[C@@H](C)Oc1nn(-c2ccccc2F)c(-c2cncnc2)c1Br [VI-011, Methyl (2R)-2-{[4-bromo-1-(2-fluorophenyl)-5-(pyrimidin-5-yl)-1H-pyrazol-3-yl]oxy}propanoate]
[1]
  Pre-emergence action against KCHSC: 100%
[3]
  Pre-emergence action at 320 g/ha against ABUTH in %: 80%

## C[C@@H](Oc1nn(-c2ccccc2F)c(-c2cncnc2)c1Br)C(=O)O [VI-012]
[1]
  Pre-emergence action against KCHSC: 100%
[3]
  Pre-emergence action at 320 g/ha against ABUTH in %: 80%

## COC(=O)[C@@H](C)Oc1nn(-c2ccccc2)c(-c2cncnc2)c1Br [VI-013]
[1]
  Pre-emergence action against KCHSC: 100%
[3]
  Pre-emergence action at 320 g/ha against ABUTH in %: 80%

## COC(=O)COc1nn(-c2ccc(F)cc2)c(-c2ccc(F)nc2)c1Br [VII-002]
[2]
  Pre-emergence action at 320 g/ha against HORMU in %: 80%

## O=C(O)COc1nn(-c2ccccc2F)c(-c2ccc(F)nc2)c1Br [VII-003, {[4-Bromo-1-(2-fluorophenyl)-5-(6-fluoropyridin-3-yl)-1H-pyrazol-3-yl]oxy}acetic acid]
[2]
  Pre-emergence action at 320 g/ha against HORMU in %: 90%

## COC(=O)[C@@H](C)Oc1nn(-c2ccccc2)c(-c2cccnc2)c1Br [VII-008]
[1]
  Pre-emergence action against KCHSC: 90%
[3]
  Pre-emergence action at 320 g/ha against ABUTH in %: 80%

## CCOC(=O)COc1nn(-c2ccccc2F)c(-c2ccc(F)nc2)c1Br [VII-012, Ethyl {[4-bromo-1-(2-fluorophenyl)-5-(6-fluoropyridin-3-yl)-1H-pyrazol-3-yl]oxy}acetate]
[2]
  Pre-emergence action at 320 g/ha against HORMU in %: 80%

## COC(=O)C(C)Oc1nn(-c2ccccc2)c(-c2ccc(F)nc2)c1Br (stereo not shown) [VII-014]
[1]
  Pre-emergence action against KCHSC: 100%

## CCOC(=O)COc1nn(-c2ccccc2F)c(-c2cncc(F)c2)c1Br [VII-015]
[3]
  Pre-emergence action at 320 g/ha against ABUTH in %: 80%

## CCOC(=O)COc1nn(-c2ccc(F)cc2F)c(-c2ccc(F)nc2)c1Cl [VII-016]
[2]
  Pre-emergence action at 320 g/ha against HORMU in %: 90%

## COC(=O)COc1nn(-c2ccccc2)c(-c2ccc(F)nc2)c1Br [VII-018]
[1]
  Pre-emergence action against KCHSC: 90%

## CCOC(=O)C(C)Oc1nn(-c2ccccc2F)c(-c2ccc(F)nc2)c1Br (stereo not shown) [VII-019]
[2]
  Pre-emergence action at 320 g/ha against HORMU in %: 100%
[1]
  Pre-emergence action against KCHSC: 100%

## COC(=O)C(C)Oc1nn(-c2ccccc2)c(-c2ccc(F)nc2)c1Cl (stereo not shown) [VII-023, Methyl 2-{[4-chloro-5-(6-fluoropyridin-3-yl)-1-phenyl-1H-pyrazol-3-yl]oxy}propanoate]
[2]
  Pre-emergence action at 320 g/ha against HORMU in %: 100%

## O=C(O)COc1nn(-c2ccccc2F)c(-c2cncc(F)c2)c1Br [VII-025]
[1]
  Pre-emergence action against KCHSC: 90%

## COC(=O)C(C)Oc1nn(-c2ccccc2)c(-c2ccc(F)nc2)c1Br (stereo not shown) [VII-026]
[1]
  Pre-emergence action against KCHSC: 100%

## COC(=O)COc1nn(-c2ccc(F)cc2)c(-c2cccnc2)c1Br [VII-028]
[3]
  Pre-emergence action at 320 g/ha against ABUTH in %: 90%

## CCC(Oc1nn(-c2ccccc2F)c(-c2ccc(F)nc2)c1Br)C(=O)OC (stereo not shown) [VII-029]
[2]
  Pre-emergence action at 320 g/ha against HORMU in %: 90%
[1]
  Pre-emergence action against KCHSC: 90%

## COC(=O)C(C)Oc1nn(-c2ccccc2)c(-c2cccnc2)c1Cl (stereo not shown) [VII-032]
[2]
  Pre-emergence action at 320 g/ha against HORMU in %: 80%

## COC(=O)COc1nn(-c2ccccc2F)c(-c2cncc(F)c2)c1Br [VII-035]
[1]
  Pre-emergence action against KCHSC: 90%
[3]
  Pre-emergence action at 320 g/ha against ABUTH in %: 90%

## CCOC(=O)C(C)Oc1nn(-c2ccccc2F)c(-c2ccc(F)nc2)c1I (stereo not shown) [VII-057]
[1]
  Pre-emergence action against KCHSC: 100%

## COC(=O)[C@@H](C)Oc1nn(-c2cc(F)ccc2F)c(-c2ccc(F)nc2)c1Br [VII-062]
[1]
  Pre-emergence action against KCHSC: 100%

## COC(=O)[C@@H](C)Oc1nn(-c2cc(F)ccc2F)c(-c2cncc(F)c2)c1Br [VII-132]
[1]
  Pre-emergence action against KCHSC: 100%
[3]
  Pre-emergence action at 320 g/ha against ABUTH in %: 90%

## COC(=O)[C@@H](C)Oc1nn(-c2cc(F)ccc2F)c(-c2cncc(F)c2)c1C#N [VII-147]
[1]
  Pre-emergence action against KCHSC: 100%

## CCOC(=O)COc1nn(-c2ccccc2F)c(-c2ccnc(F)c2)c1Br [VIII-003, Ethyl {[4-bromo-1-(2-fluorophenyl)-5-(2-fluoropyridin-4-yl)-1H-pyrazol-3-yl]oxy}acetate]
[2]
  Pre-emergence action at 320 g/ha against HORMU in %: 90%

## COC(=O)[C@@H](C)Oc1nn(-c2ccccc2F)c(-c2ccnc(F)c2)c1Br [VIII-006]
[1]
  Pre-emergence action against KCHSC: 100%
